“And” between values parts separate entries of the source, which are not always exact repeats. Equal entries are not always repeated. Where two headings read alike, the source gives them in different places.
How the values were obtained:
[1] = biological target: T1, AChE from Electrophorus electricus (Electrophorus electricus, UniProt O42275); conditions: Ellman's assay, compounds 7-9 ref 39, cited from earlier work
T1 construct: purchased Sigma-Aldrich

[2] = biological target: T1, AChE from Electrophorus electricus; test: Ellman's assay, AChE inhibition; assay type: biochemical
BuChE from horse serum = biological target: T2, BuChE from horse serum (Equus caballus, UniProt P81908); test: biochemical
T2 construct: BuChE from horse serum (2.5 units/1 mL); purchased Sigma-Aldrich; host or cells: horse serum
Protocol: The activity against acetylcholinesterases from electric eel and butyrylcholinesterase from horse serum was determined in spectrophotometric Ellman’s assay.
The activity against cholinesterases was determined in spectrophotometric Ellman’s assay.
The reaction took place in 100 mM phosphate buffer, pH 8.0, containing 0.25 units of AChE or BuChE, 0.3 mmol 5,5′-dithio-bis-(2-nitrobenzoic) acid (DTNB) and 0.45 mmol acetylthiocholine or butyrylthiocholine as substrates. The tested compounds were incubated with the enzyme for 5 min at 25 °C prior to starting the reaction by adding the substrate.

[3] = electric eel AChE, read-out: AChE IC50
[4] = AChE IC50, Ellman's assay, electric eel AChE, pH 8.0, 25 °C
[5] = Ellman's assay, horse serum BuChE, pH 8.0, 25 °C, n.a.: not active, read-out: BuChE IC50

T2 sequence (P81908 whole entry): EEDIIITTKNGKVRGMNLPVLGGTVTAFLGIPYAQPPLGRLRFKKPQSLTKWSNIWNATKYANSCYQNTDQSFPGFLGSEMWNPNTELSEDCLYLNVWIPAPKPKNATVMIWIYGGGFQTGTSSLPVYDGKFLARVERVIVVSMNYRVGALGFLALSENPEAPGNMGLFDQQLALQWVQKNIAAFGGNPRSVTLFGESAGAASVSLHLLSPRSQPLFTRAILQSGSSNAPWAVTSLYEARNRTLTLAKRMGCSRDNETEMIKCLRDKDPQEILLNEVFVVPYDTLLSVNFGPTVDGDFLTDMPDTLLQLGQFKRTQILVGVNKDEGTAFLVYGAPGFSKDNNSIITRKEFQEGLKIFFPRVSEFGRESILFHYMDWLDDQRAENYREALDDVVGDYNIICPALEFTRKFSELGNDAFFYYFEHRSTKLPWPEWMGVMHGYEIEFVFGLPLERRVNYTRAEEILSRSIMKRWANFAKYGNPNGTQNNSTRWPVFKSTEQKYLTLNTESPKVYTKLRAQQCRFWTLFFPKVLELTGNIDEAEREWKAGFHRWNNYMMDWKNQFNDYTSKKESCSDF
T1 sequence (O42275 24-633): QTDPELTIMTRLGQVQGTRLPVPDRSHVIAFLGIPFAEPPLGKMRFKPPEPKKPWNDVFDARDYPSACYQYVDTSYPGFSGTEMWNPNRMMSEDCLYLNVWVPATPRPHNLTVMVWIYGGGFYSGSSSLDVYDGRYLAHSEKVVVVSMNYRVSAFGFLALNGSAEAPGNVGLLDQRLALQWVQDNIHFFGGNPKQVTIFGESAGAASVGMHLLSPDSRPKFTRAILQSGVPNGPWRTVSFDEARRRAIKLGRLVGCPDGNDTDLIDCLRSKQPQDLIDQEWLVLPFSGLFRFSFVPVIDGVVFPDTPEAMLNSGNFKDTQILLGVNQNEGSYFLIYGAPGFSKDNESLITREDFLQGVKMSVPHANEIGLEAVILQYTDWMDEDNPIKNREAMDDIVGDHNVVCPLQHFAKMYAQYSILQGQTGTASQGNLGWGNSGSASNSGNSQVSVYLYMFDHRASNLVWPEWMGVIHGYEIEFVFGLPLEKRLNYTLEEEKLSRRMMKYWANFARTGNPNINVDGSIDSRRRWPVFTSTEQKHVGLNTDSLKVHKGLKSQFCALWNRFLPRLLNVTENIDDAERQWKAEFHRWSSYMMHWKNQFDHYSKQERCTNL

SMILES | IC50 [2, 4] | IC50 ([2]; IC50 AChE, Ellman's assay) | further results
CCN(CC)CCCCCCN1C(=O)c2ccccc2C1=O [Compound 9, 2-(6-diethylaminohexyl)-isoindoline-1,3-dione] | – | – | IC50 [1, 3]: 1230 nM; IC50 ([1]; read-out: IC50 AChE): 1230 nM
O=C1c2ccccc2C(=O)N1CCCCCCNCc1ccccc1 [Compound 4, 2-(6-(Benzylamino)hexyl)isoindoline-1,3-dione] | 330 nM | 330 nM | –
O=C1c2ccccc2C(=O)N1CCCCCCNC1CCN(Cc2ccccc2)CC1 [Compound 2, 2-(6-(1-Benzylpiperidin-4-ylamino)hexyl)isoindoline-1,3-dione] | 53700 nM | – | IC50 (BuChE from horse serum; [5]): 24500 nM
O=C1c2ccccc2C(=O)N1CCCCCCNC1CCN(Cc2cccc(Cl)c2)CC1 [Compound 3, 2-(6-(1-(3-Chlorobenzyl)piperidin-4-ylamino)hexyl)isoindoline-1,3-dione] | 44000 nM | – | IC50 (BuChE from horse serum): 7660 nM
O=C1c2ccccc2C(=O)N1CCCNC1CCN(Cc2ccccc2)CC1 [Compound 1, 2-(3-(1-Benzylpiperidin-4-ylamino)propyl)isoindoline-1,3-dione] | 18200 nM | – | IC50 (BuChE from horse serum; [5]): 22800 nM
O=C1c2ccccc2C(=O)N1CCCCCNCc1ccccc1F [Compound 6, 2-(5-(2-fluorobenzylamino)pentyl)isoindoline-1,3-dione] | 87.2 nM | 87 nM and 87.2 nM | –
O=C1c2ccccc2C(=O)N1CCCCCNCc1ccccc1 [Compound 5, 2-(5-(Benzylamino)pentyl)isoindoline-1,3-dione] | 170 nM | 170 nM | –
CCN(CC)CCCCCCCN1C(=O)c2ccccc2C1=O [Compound 8, 2-(7-diethylaminoheptyl)-isoindoline-1,3-dione] | – | – | IC50 [1, 3]: 1070 nM; IC50 ([1]; read-out: IC50 AChE): 1070 nM
